Experiment [1] concerns the target hROMK (hKir1.1) (Homo sapiens (Human), UniProt P48048). Nature of the experiment: Thallium Flux Assay (ROMK channel functional thallium flux, FLIPR-Tetra). The class given is cell-based. The conditions noted are these: HEK293 cells stably expressing hROMK (hKir1.1); 30 min compound incubation. An excerpt:
(§1) Several assays may be used to measure functional inhibition of the ROMK channel by compounds of the instant invention. One assay that can be used is an electrophysiology assay that measures the electrical current that is generated as potassium permeates through the channel. Another ROMK functional assay makes use of the ability of thallium to permeate through open ROMK channels and increase the fluorescence of a dye previously loaded into the cells. Under control conditions, cells loaded with dye and exposed to thallium-containing medium display a time-dependent increase in fluorescence, the rate of which depends on number of functional channels. When cells are incubated in the presence of a channel inhibitor, the increase in fluorescence is attenuated in a concentration-dependent manner, and IC50 values of inhibition by compounds can be accurately determined. This assay has been established with cell lines expressing either human, or rat ROMK channels, and operates in 384-well format.
HEK293 cells stably expressing hROMK (hKir1.1) were grown at 37° C. in a 10% CO2 humidified incubator in complete growth media: Dulbecco's Modified Eagle Medium supplemented with non-essential amino acids, Penicillin/Streptomycin/Glutamine, G418 and FBS. At >80% confluency, the media was aspirated from the flask and the sample was rinsed with 10 ml Calcium/Magnesium-free PBS. […] To dislodge the cell, the side of the flask was gently banged with a hand. The cells were triturated completely and then transferred to 25 ml complete media. The sample was then centrifuged at 1,500 rpm for 6 minutes, followed by resuspension in complete growth media and then cell concentration was determined. […] Under ideal growth conditions and appropriate tissue culture practices, this cell line is stable for 40-45 passages.
• FluxOR™ Reagent (Component A) • FluxOR™ Assay Buffer (Component B)—10× Concentrate • PowerLoad™ Concentrate (Component C)—100× Concentrate • Probenecid (Component D) Lyophilized sample is kept at −20° C. Water soluble, 100× after solubilization in 1 ml water. […] Store at 4° C. • Thallium sulfate (Tl2SO4) Concentrate (Component G)—50 mM in water. […] Can be stored at room temperature • Stimulant Buffer (prepared at 5× final concentration in 1× FluxOR™Chloride-Free Buffer): 7.5 mM Thallium sulfate and 0.75 mM Potassium sulfate (to give a final assay concentration of 3 mM Thallium 0.3 mM Potassium). Store at 4° C. when not in use. If kept sterile, this solution is good for months. Assay Protocol—
The ROMK channel functional thallium flux assay is performed in 384 wells, using the FLIPR-Tetra instrument. HEK-hKir1.1 cells are seeded in Poly-D-Lysine microplates and kept in a 37° C.-10% CO2 incubator overnight. On the day of the experiment, the growth media is replaced with the FluxOR™ reagent loading buffer and incubated, protected from light, at ambient temperature (23-25° C.) for 90 min. The loading buffer is replaced with assay buffer±test compound followed by 30 min incubation at ambient temperature, where the Thallium/Potassium stimulant is added to the microplate.
• 1. Seed HEK-hKir1.1 cells (50 μl at 20,000 cells/well) in 384-well PDL coated Microplates • 2. Allow cells to adhere overnight in humidified 37° C./10% CO2 incubator • 3. Completely remove cell growth media from microplate and replace with 25 μl loading buffer • 4. Incubate Microplate at room temperature, protected form light, for 90 min • 5. Remove loading buffer and replace with 25 μl 1× Assay Buffer±test compound. • 6. Incubate microplate at room temperature, protected form light, for 30 min • 7. […] Excitation=400 nm, Emission=460 & 580 nm. Collect data for 10 min. Data Calculation—
The fluorescence intensity of wells containing 3 μM of a standard control ROMK inhibitor of the present invention is used to define the ROMK-sensitive component of thallium flux. Fluorescence in the presence of test compounds is normalized to control values to provide % fluorescence change.

The target in experiment [2] is Kir1.1 (ROMK1) (Homo sapiens (Human), UniProt P48048). Nature of the experiment: Electrophysiology Assay (whole cell voltage clamp, IonWorks Quattro). The class given is cell-based. The conditions noted are these: Chinese hamster ovary cells stably expressing Kir1.1; block during voltage step to 0 mV; 6 minutes compound incubation; read-out: EP Assay IC50.
Sequence of Kir1.1 (ROMK1) (P48048 whole entry, species assumed): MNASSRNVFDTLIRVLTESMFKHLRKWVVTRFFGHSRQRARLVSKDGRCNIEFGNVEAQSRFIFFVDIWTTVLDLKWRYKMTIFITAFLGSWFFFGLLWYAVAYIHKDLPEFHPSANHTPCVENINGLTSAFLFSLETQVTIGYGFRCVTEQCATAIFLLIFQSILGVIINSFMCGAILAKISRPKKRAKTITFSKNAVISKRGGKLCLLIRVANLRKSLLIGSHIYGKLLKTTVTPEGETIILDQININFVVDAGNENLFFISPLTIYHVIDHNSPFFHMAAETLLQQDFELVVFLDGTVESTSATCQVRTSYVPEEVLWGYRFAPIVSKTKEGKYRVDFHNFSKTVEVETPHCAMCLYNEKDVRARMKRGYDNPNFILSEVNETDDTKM
Excerpt: as §1
Chinese hamster ovary cells stably expressing Kir1.1 channels were maintained in T-75 flasks in cell culture media in a humidified 10% CO2 incubator at 37° C. Prior to an experiment, Kir1.1 expression was induced by overnight incubation with 1 mM sodium butyrate. […] After centrifugation, the cell pellet was resuspended in approximately 4.0 ml of bath solution and placed in the IonWorks® instrument. The intracellular solution consisted of (in mM): 80 K gluconate, 40 KCl, 20 KF, 3.2 MgCl2, 3 EGTA, 5 Hepes, pH 7.4. Electrical access to the cytoplasm was achieved by perforation in 0.13 mg/ml amphotericin B for 4 minutes.
Voltage protocols and current recordings were performed using the IonWorks® HT software/hardware system. Currents were sampled at 1 kHz. No correction for liquid junction potentials was used. The test pulse, consisting of a 100 ms step to 0 mV from a holding potential of −70 mV, followed by a 100 ms voltage ramp from −70 mV to +70 mV, was applied before and after a 6 minutes compound incubation period. Test compounds were prepared by diluting DMSO stock solutions into the bath solution at 3× the final concentration and placed in the instrument in 96-well polypropylene plates. Current amplitudes were measured using the IonWorks® software.
For orientation: In patch-clamp work, channel activity is measured electrically.

The text below walks through data of patent publication US9108947B2, “Inhibitors of the Renal Outer Medullary Potassium channel” (Merck Sharp & Dohme Corp., priority 2011, dated 2015).

Sequence of hROMK (hKir1.1) (P48048 whole entry): as the sequence (P48048 whole entry, species assumed) above

Consider `Cc1c([C@@H](O)CN2CCCC2CNCC(O)c2ccc(C#N)cn2)ccc2c1COC2=O` (single isomer, unassigned) [Example 9B], for which the half-inhibitory concentration (IC50) in experiment [1] was found to be 290 nM; in experiment [2], 254 nM. With `Cc1c([C@@H](O)CN2CC(CNS(=O)(=O)c3ccc(C#N)cc3)C2)ccc2c1COC2=O` [Example 14, (R)-4-Cyano-N-((1-(2-hydroxy-2-(4-methyl-1-oxo-1,3-dihydroisobenzofuran-5-yl)ethyl)azetidin-3-yl)methyl)benzenesulfonamide], the half-inhibitory concentration (IC50) in experiment [1] came to 122 nM; in experiment [2] it was 150 nM. On the same counts, the results for `Cc1c([C@@H](O)CNCC2CCCN2C[C@H](O)c2ccc3c(c2C)COC3=O)ccc2c1COC2=O` (stereo partly drawn) [Example 3, 5-{(1R)-1-Hydroxy-2-[2-({[(2R)-2-hydroxy-2-(4-methyl-1-oxo-1,3-dihydro-2-benzofuran-5-yl)ethyl]amino}methyl)pyrrolidin-1-yl]ethyl}-4-methyl-2-benzofuran-1(3H)-one] are 176 nM and 510 nM. In the case of `Cc1c([C@@H](O)CNCC2(C)CCCN(C[C@H](O)c3ccc4c(c3C)COC4=O)C2)ccc2c1COC2=O` (stereo partly drawn) [Example 8, 5-{(1R)-1-Hydroxy-2-[3-({[(2R)-2-hydroxy-2-(4-methyl-1-oxo-1,3-dihydro-2-benzofuran-5-yl)ethyl]amino}methyl)-3-methylpiperidin-1-yl]ethyl}-4-methyl-2-benzofuran-1(3H)-one], in experiment [1], the IC50 worked out at 847 nM.

Compound `Cc1c([C@@H](O)CN2CC(CNS(=O)(=O)Cc3ccc(C#N)cc3)C2)ccc2c1COC2=O` [Example 16, (R)-1-(4-Cyanophenyl)-N-((1-(2-hydroxy-2-(4-methyl-1-oxo-1,3-dihydroisobenzofuran-5-yl)ethyl)azetidin-3-yl)methyl)methanesulfonamide] had an IC50 in experiment [1] of 1040 nM. The same measure, in the same setting: then `Cc1c([C@@H](O)CN2CCC(CNc3nccn4cnnc34)(c3ccccc3)C2)ccc2c1COC2=O` (stereo partly drawn) [Example 24, 5-((1R)-2-(3-(([1,2,4]Triazolo[4,3-a]pyrazin-8-ylamino)methyl)-3-phenylpyrrolidin-1-yl)-1-hydroxyethyl)-4-methylisobenzofuran-1(3H)-one], with 893 nM.

In the case of `Cc1c([C@@H](O)CN[C@@H]2CCN(CC(O)c3ccc(C#N)cn3)C2)ccc2c1COC2=O` (stereo partly drawn) [Example 12, 6-(1-Hydroxy-2-((R)-3-((R)-2-hydroxy-2-(4-methyl-1-oxo-1,3-dihydroisobenzofuran-5-yl)ethylamino)pyrrolidin-1-yl)ethyl)nicotinonitrile], the IC50 stood at 542 nM in experiment [1] and 1370 nM in experiment [2]. With `Cc1c([C@@H](O)CN2CCCC2CNCC(O)c2ccc(C#N)cn2)ccc2c1COC2=O` (single isomer, unassigned) [Example 9A], the IC50 in experiment [1] turned out to be 188 nM; in experiment [2] it was 321 nM. `Cc1c([C@@H](O)CN2CC[C@@H](NS(=O)(=O)c3ccc(C#N)cc3)C2)ccc2c1COC2=O` [Example 15, 4-Cyano-N—((R)-1-((R)-2-hydroxy-2-(4-methyl-1-oxo-1,3-dihydroisobenzofuran-5-yl)ethyl)pyrrolidin-3-yl)benzenesulfonamide]: the IC50 in experiment [1] was found to be 639 nM; in experiment [2], 1390 nM. For `Cc1c(C(O)CN2CC[C@@H](NC[C@H](O)c3ccc4c(c3C)COC4=O)C2)ccc2c1COC2=O` (stereo in doubt) [Example 1, 5-{(1R)-1-Hydroxy-2-[(3R)-3-{[(2R)-2-hydroxy-2-(4-methyl-1-oxo-1,3-dihydro-2-benzofuran-5-yl)ethyl]amino}pyrrolidin-1-yl]ethyl}-4-methyl-2-benzofuran-1(3H)-one] the same measures were 414 nM and 595 nM. `Cc1c([C@@H](O)CN2CCC(C3(Nc4nccn5cnnc45)CCC3)C2)ccc2c1COC2=O` (stereo partly drawn) [Example 23, 5-((1R)-2-(3-(1-([1,2,4]Triazolo[4,3-a]pyrazin-8-ylamino)cyclobutyl)pyrrolidin-1-yl)-1-hydroxyethyl)-4-methylisobenzofuran-1(3H)-one] had an IC50 in experiment [1] of 401 nM.

On to `Cc1c([C@@H](O)CN2CCC(C)(CNc3ccc(C#N)cn3)C2)ccc2c1COC2=O` (stereo partly drawn) [Example 21, 6-((1-((R)-2-Hydroxy-2-(4-methyl-1-oxo-1,3-dihydroisobenzofuran-5-yl)ethyl)-3-methylpyrrolidin-3-yl)methylamino)nicotinonitrile], for which the concentration for half-maximal inhibition (IC50) was 547 nM in experiment [1] and 103 nM in experiment [2]. As to `Cc1c([C@@H](O)CNC2(C3CCN(C[C@H](O)c4ccc5c(c4C)COC5=O)C3)CCC2)ccc2c1COC2=O` (stereo partly drawn) [Example 2, 5-{(1R)-1-Hydroxy-2-[3-(1-{[(2R)-2-hydroxy-2-(4-methyl-1-oxo-1,3-dihydro-2-benzofuran-5-yl)ethyl]amino}cyclobutyl)pyrrolidin-1-yl]ethyl}-4-methyl-2-benzofuran-1(3H)-one], the results for the 50% inhibitory concentration (IC50) in experiment [1] and in experiment [2] were 172 nM and 420 nM, respectively. Consider `Cc1c([C@@H](O)CNCC2(C)CCN(C[C@H](O)c3ccc4c(c3C)COC4=O)C2)ccc2c1COC2=O` (stereo partly drawn) [Example 7, 5-{(1R)-1-Hydroxy-2-[3-({[(2R)-2-hydroxy-2-(4-methyl-1-oxo-1,3-dihydro-2-benzofuran-5-yl)ethyl]amino}methyl)-3-methylpyrrolidin-1-yl]ethyl}-4-methyl-2-benzofuran-1(3H)-one], for which, in experiment [1], the IC50 was found to be 277 nM. As to `Cc1c([C@@H](O)CN2CC[C@H](NCC(O)c3ccc(C#N)cn3)C2)ccc2c1COC2=O` (stereo partly drawn) [Example 11, 6-(1-Hydroxy-2-((S)-1-((R)-2-hydroxy-2-(4-methyl-1-oxo-1,3-dihydroisobenzofuran-5-yl)ethyl)pyrrolidin-3-ylamino)ethyl)nicotinonitrile], half-maximal inhibition in experiment [1] (IC50) required 648 nM. On to `Cc1c([C@@H](O)CN2CCCCC2CNCC(O)c2ccc(C#N)cn2)ccc2c1COC2=O` (stereo partly drawn) [Example 13, 6-{1-Hydroxy-2-[({1-[(2R)-2-hydroxy-2-(4-methyl-1-oxo-1,3-dihydro-2-benzofuran-5-yl)ethyl]piperidin-2-yl}methyl)amino]ethyl}pyridine-3-carbonitrile], for which the 50% inhibitory concentration (IC50) was determined as 162 nM in experiment [1] and 269 nM in experiment [2]. `Cc1c([C@@H](O)CNC2C[C@H]3C[C@@H]2N(C[C@H](O)c2ccc4c(c2C)COC4=O)C3)ccc2c1COC2=O` (single isomer, unassigned) [Example 17B] registered an IC50 in experiment [1] of 581 nM.

Turning to `Cc1c([C@@H](O)CNCC2CCCCN2C[C@H](O)c2ccc3c(c2C)COC3=O)ccc2c1COC2=O` (stereo partly drawn) [Example 5, 5-{(1R)-1-Hydroxy-2-[2-({[(2R)-2-hydroxy-2-(4-methyl-1-oxo-1,3-dihydro-2-benzofuran-5-yl)ethyl]amino}methyl)piperidin-1-yl]ethyl}-4-methyl-2-benzofuran-1(3H)-one], the IC50 in experiment [1] was 82 nM.

The IC50 is the concentration that inhibits the measured activity by half.
